Data taken from patent US20070078179A1, “Use of a fibrate and orlistat for the treatment of obesity” (Foumier Laboratories Ireland Limited, priority 2003, published 2007).

Assay: Effect of fenofibrate and orlistat co-administration on body weight of mice fed a high-fat diet
Format: in vivo
Settings: for Gain: body weight gain over 6 weeks, * p<0.05 relative to Group 5 (standard diet); for Gain / Body weight after 6 weeks: mice fed with high-fat diet, drug p.o. mixed with the diet (fenofibrate 25 mg/kg, orlistat 2.5 mg/kg), mean±sem; for Body weight after 6 weeks: in g (unit assumed)
Description: This study was designed to evaluate the effects of using a combination of fenofibrate and orlistat on body weight. Method Animals: Mice weighing approximately 20 g were received from CERJ. They were put into individual cages in a temperature-, humidity- and light-controlled room (21-23° C., 12-12 h light-dark cycle). […] After acclimatization, they were randomized into groups of 20 animals, based on body weight. The experimental groups were: • a Group 1: mice fed with high-fat diet • Group 2: mice fed with high-fat diet, treated with fenofibrate 25 mg/kg p.o., mixed with the diet • Group 3: mice fed with high-fat diet, treated with orlistat 2.5 mg/kg p.o., mixed with the diet • Group 4: mice fed with high-fat diet, treated with fenofibrate 25 mg/kg p.o. and orlistat 2.5 mg/kg p.o., mixed with the diet • Group 5: mice fed with standard diet Statistics: All data are presented as mean±sem. Results were subjected to Dunnett's t test. A p<0.05 was considered significant.

| Compound | Gain | Body weight after 6 weeks | Difference from mice with a standard diet (normalization of the body weight) (after 6 weeks of treatment, mice with a high-fat diet compared with mice with a standard diet, Dunnett's t test) |
| --- | --- | --- | --- |
| CC(C)OC(=O)C(C)(C)Oc1ccc(C(=O)c2ccc(Cl)cc2)cc1 [fenofibrate] | 7.60 ± 0.43* | 27.25 ± 0.47 | – |
| CCCCCCCCCCC[C@@H](C[C@@H]1OC(=O)[C@H]1CCCCCC)OC(=O)[C@H](CC(C)C)NC=O (relative stereo) [orlistat, [2S-[2α(R*),3β]]-N-formyl-L-leucine 1-[(3-hexyl-4-oxo-2-oxetanyl)methyl]dodecyl ester] | 7.59 ± 0.28* | 27.12 ± 0.39 | significant difference |
